Measurements: patent US20080194585A1, “Fungicidal Pyrazine Derivatives” (priority 2005, published 2008)
Marks after values point to notes of the source that are not given here.

Columns and labels:
Details in all cases: 40 ppm (*)
Pythium aphanidermatum = assay: Test A: bluegrass pythium blight, preventive spray on bluegrass seedlings
[1] = tested on: Erysiphe graminis f. sp. tritici; assay: Test L: wheat powdery mildew, preventive spray on wheat seedlings
Rhizoctonia oryzae = assay: Test G: turf brown patch, preventive spray on creeping bent grass seedlings
Protocol: (the causal agent of turf brown patch) and incubated in a saturated atmosphere at 27° C. for 24 h, and then moved to a growth chamber at 27° C. for 5 days, after which disease ratings were made.

Phytophthora infestans = assay: whole plant or invertebrate; type: in vivo
Sclerotinia sclerotiorum = assay: Test C: cucumber white mold, preventive spray on cucumber seedlings
Plasmopara viticola = assay: Test D: grape downy mildew, spray after inoculation of grape seedlings; type: in vivo
From the text: Upon removal, disease ratings were made. […] A dash (-) indicates no test results.

[2] = tested on: Colletotrichum orbiculare; assay: Test B: cucumber Colletotrichum anthracnose, preventive spray on cucumber seedlings
Botrytis cinerea = assay: Test E: tomato botrytis, preventive spray on tomato seedlings
[3] = tested on: Puccinia recondita f. sp. tritici; assay: Test K: wheat leaf rust, preventive spray on wheat seedlings
Septoria nodorum = assay: Test H: wheat glum blotch, preventive spray on wheat seedlings
Protocol: (the causal agent of wheat glum blotch) and incubated in a saturated atmosphere at 20° C. for 48 h, and then moved to a growth chamber at 22° C. for 5 days, after which disease ratings were made.

Septoria tritici = assay: Test J: wheat leaf blotch, preventive spray on wheat seedlings; type: in vivo
From the text: A dash (-) indicates no test results.

| SMILES | Test A disease control rating (Pythium aphanidermatum) | Test L disease control rating [1] | Test G disease control rating (Rhizoctonia oryzae) | Test F disease control rating (Phytophthora infestans) | Test C disease control rating (Sclerotinia sclerotiorum) | Test D disease control rating (Plasmopara viticola) | Test B disease control rating [2] | Test E disease control rating (Botrytis cinerea) | Test K disease control rating [3] | Test H disease control rating (Septoria nodorum) | Test J disease control rating (Septoria tritici) |
| --- | --- | --- | --- | --- | --- | --- | --- | --- | --- | --- | --- |
| CC(CO)n1c(-c2c(F)cccc2F)c(Cl)nc(-n2cccn2)c1=O (stereo not shown) [compound 213] | 0* % | 0* % | 0* % | 0* % | 0* % | 32* % | 0* % | 41* % | 92* % | 0* % | 0* % |
| CC(CCl)n1c(-c2c(F)cccc2F)c(Cl)nc(-n2cncn2)c1=O (stereo not shown) [compound 214] | 0* % | 0* % | 0* % | 0* % | 0* % | 12* % | 0* % | 0* % | 69* % | 0* % | 9* % |
| CC(C)Cn1c(-c2c(F)cccc2F)c(Cl)nc(-n2ccnn2)c1=O [compound 215] | 0* % | 0* % | 0* % | 0* % | 0* % | 29* % | 0* % | 99* % | 55* % | 0* % | 0* % |
| CCC(C)Cn1c(-c2ccc(F)cc2Cl)c(Cl)nc(N2CCC=N2)c1=O (stereo not shown) [compound 216] | 0* % | 94* % | 0* % | 0* % | 0* % | 0* % | 53* % | 100* % | 94* % | 89* % | 97* % |
| CCC(C)Cn1c(-c2ccc(F)cc2Cl)c(Cl)nc(N2CCC(=O)N2)c1=O (stereo not shown) [compound 217] | 0* % | 62* % | 0* % | 0* % | 90* % | 0* % | 0* % | 100* % | 86* % | 86* % | 96* % |
| CC[C@H](C)Cn1c(-c2c(F)cc(F)cc2F)c(Cl)nc(N2CCC=N2)c1=O [compound 218] | 0* % | 100* % | 43* % | 0* % | 99* % | 29* % | 99* % | 100* % | 100* % | 100* % | 100* % |
| CC[C@H](C)Cn1c(-c2c(F)cc(F)cc2F)c(Cl)nc(-n2ccc(C)n2)c1=O [compound 219] | 0* % | 100* % | 99* % | 0* % | 70* % | 36* % | 100* % | 100* % | 100* % | 100* % | 100* % |
| N#Cc1nc(Cl)c(-c2c(F)cccc2F)n(Cc2ccc(Cl)cc2)c1=O [compound 220] | 0* % | 0* % | 0* % | 0* % | 0* % | 0* % | 0* % | 0* % | 0* % | 0* % | 25* % |
| O=c1c(-n2cccn2)nc(Cl)c(-c2c(F)cccc2F)n1Cc1ccc(Cl)cc1 [compound 221] | 0* % | 0* % | 16* % | 0* % | 0* % | 0* % | 0* % | 99* % | 89* % | 98* % | 100* % |
| O=c1c(-n2cncn2)nc(Cl)c(-c2c(F)cccc2F)n1Cc1ccc(Cl)cc1 [compound 222] | 0* % | 0* % | 0* % | 0* % | 0* % | 0* % | 0* % | 92* % | 79* % | 60* % | 86* % |
| CC1CCCCC1n1c(-c2c(F)cccc2F)c(Cl)nc(C#N)c1=O (stereo not shown) [compound 223] | 0* % | 51* % | 0* % | 0* % | 0* % | 0* % | 0* % | 0* % | 0* % | 0* % | 17* % |
| CC1CCCCC1n1c(-c2c(F)cccc2F)c(Cl)nc(-n2cccn2)c1=O (stereo not shown) [compound 224] | 0* % | 83* % | 92* % | 0* % | 0* % | 0* % | 66* % | 100* % | 94* % | 99* % | 100* % |
| CC1CCCCC1n1c(-c2c(F)cccc2F)c(Cl)nc(-n2cncn2)c1=O (stereo not shown) [compound 225] | 0* % | 0* % | 0* % | 0* % | 0* % | 0* % | 0* % | 100* % | 73* % | 73* % | 100* % |
| CCCCn1c(-c2c(F)cc(F)cc2F)c(Cl)nc(N2CCC=N2)c1=O [compound 226] | 0* % | 46* % | 0* % | 0* % | 0* % | 0* % | 0* % | 0* % | 82* % | 95* % | 100* % |
| CCCCn1c(-c2c(F)cc(F)cc2F)c(Cl)nc(-n2cccn2)c1=O [compound 227] | 0* % | 99* % | 100* % | 0* % | 0* % | 96* % | 96* % | 100* % | 100* % | 100* % | 100* % |
| CCCCn1c(-c2c(F)cc(F)cc2F)c(Cl)nc(-n2ccc(C)n2)c1=O [compound 228] | 0* % | 99* % | 99* % | 0* % | 0* % | 77* % | 98* % | 100* % | 99* % | 100* % | 99* % |
| CCCCn1c(-c2c(F)cc(F)cc2F)c(Cl)nc(-n2cncn2)c1=O [compound 229] | 0* % | 88* % | 16* % | 0* % | 0* % | 0* % | 0* % | 95* % | 17* % | 82* % | 57* % |
